Experimental data as given in patent US20240150377A1, “MODULATORS OF CYSTIC FIBROSIS TRANSMEMBRANE CONDUCTANCE REGULATOR” (VERTEX PHARMACEUTICALS INCORPORATED, priority 2020, published 2024).

Molecular target: T1, CFTR (Homo sapiens, UniProt P13569, DEL508-508)
T1 construct: endogenous in cells; host or cells: primary human bronchial epithelial cells from CF subjects (F508del/MF-HBE), differentiated at air-liquid interface
Assay: HBE assay: Ussing chamber assay of CFTR-mediated short-circuit currents
Type: cell-based
Conditions: HBE assay; for EC50: read-out: HBE EC50; for Emax: read-out: HBE Max activity (%); for activation at 10 µM: read-out: HBE Activity at 10 μM (%)
How it was run: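 CFTR-mediated Isc (μA/cm²) equals the peak response to apical 20 μM forskolin minus the residual after a 20 μM each BPO/GlyH-101/CFTR inhibitor 172 cocktail, recorded in Ussing chambers at Vhold 0 mV, 37 °C, pH 7.4, with 30 μM apical amiloride. Cells were F508del/MF HBE cultures preincubated 18-24 h with corrector (concentration range or 10 μM) plus 1 μM ivacaftor in 20% human serum.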

T1 sequence (P13569 with tags, fused parts or gaps DEL508-508): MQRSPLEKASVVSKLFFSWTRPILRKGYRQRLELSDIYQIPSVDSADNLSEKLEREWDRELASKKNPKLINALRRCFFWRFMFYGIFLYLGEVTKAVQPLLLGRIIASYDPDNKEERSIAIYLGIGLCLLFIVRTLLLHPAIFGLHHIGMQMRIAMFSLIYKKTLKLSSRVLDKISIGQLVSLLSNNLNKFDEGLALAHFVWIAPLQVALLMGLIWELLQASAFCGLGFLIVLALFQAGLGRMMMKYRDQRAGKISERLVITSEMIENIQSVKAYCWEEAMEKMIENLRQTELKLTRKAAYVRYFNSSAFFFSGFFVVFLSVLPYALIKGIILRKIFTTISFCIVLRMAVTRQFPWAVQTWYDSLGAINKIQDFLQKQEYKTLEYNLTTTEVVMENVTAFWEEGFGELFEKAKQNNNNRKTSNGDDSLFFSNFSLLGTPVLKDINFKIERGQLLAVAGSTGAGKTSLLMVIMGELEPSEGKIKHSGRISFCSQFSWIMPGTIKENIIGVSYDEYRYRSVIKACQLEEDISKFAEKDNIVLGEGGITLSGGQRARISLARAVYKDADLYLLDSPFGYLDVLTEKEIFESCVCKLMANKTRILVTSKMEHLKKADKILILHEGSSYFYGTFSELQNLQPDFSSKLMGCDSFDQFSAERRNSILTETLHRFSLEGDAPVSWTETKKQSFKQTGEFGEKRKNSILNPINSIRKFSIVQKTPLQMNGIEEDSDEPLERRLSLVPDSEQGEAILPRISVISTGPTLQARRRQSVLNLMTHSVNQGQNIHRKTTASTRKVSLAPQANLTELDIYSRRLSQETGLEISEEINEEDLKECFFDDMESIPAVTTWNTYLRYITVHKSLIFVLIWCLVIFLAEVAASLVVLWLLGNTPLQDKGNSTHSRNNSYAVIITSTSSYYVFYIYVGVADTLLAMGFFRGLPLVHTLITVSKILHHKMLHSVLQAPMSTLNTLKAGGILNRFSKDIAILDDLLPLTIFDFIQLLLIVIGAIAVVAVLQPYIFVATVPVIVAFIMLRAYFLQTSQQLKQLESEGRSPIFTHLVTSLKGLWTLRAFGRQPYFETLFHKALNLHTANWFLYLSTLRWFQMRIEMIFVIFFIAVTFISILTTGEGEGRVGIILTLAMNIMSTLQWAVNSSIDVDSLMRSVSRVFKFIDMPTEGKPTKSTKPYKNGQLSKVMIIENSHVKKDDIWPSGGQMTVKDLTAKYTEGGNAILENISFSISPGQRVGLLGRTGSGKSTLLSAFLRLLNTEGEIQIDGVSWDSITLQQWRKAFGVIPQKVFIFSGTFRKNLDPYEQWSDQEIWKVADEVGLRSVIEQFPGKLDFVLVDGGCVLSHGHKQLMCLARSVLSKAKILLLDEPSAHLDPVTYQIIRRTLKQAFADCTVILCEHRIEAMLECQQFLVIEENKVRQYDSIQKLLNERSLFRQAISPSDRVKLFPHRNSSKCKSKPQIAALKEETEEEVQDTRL

COCCOc1cnc(CN2C(=O)c3cccc(c3)S(=O)(=O)Nc3nc(cc(-c4c(C)cccc4C)n3)OC[C@H]2CC(C)(C)C)nc1 [Compound 1380]
EC50: < 1 µM | Emax: > 60%

COCCN(C)c1cnc(CN2C(=O)c3cccc(c3)S(=O)(=O)Nc3nc(cc(-c4c(C)cccc4C)n3)OC[C@H]2CC(C)(C)C)c(C)c1 [Compound 1381]
EC50: < 1 µM | Emax: > 60%

COCCOc1cnc(CN2C(=O)c3cccc(c3)S(=O)(=O)Nc3nc(cc(-c4c(C)cccc4C)n3)OC[C@H]2CC(C)(C)C)c(C)c1 [Compound 1382]
EC50: < 1 µM | Emax: > 60%

Cc1cccc(C)c1-c1cc2nc(n1)NS(=O)(=O)c1cccc(c1)C(=O)N(Cc1cncc(N3CCCC3C(C)C)n1)[C@H](CC(C)(C)C)CO2 (stereo partly drawn) [Compound 1383]
EC50: < 1 µM | Emax: > 60%

Cc1cccc(C)c1-c1cc2nc(n1)NS(=O)(=O)c1cccc(c1)C(=O)N(Cc1cncc(N3CCCC3C(C)C)n1)[C@H](CC(C)(C)C)CO2 (stereo partly drawn) [Compound 1384]
EC50: < 1 µM

COCCCOc1cnc(CN2C(=O)c3cccc(c3)S(=O)(=O)Nc3nc(cc(-c4c(C)cccc4C)n3)OC[C@H]2CC(C)(C)C)c(F)c1 [Compound 1385]
EC50: < 1 µM | Emax: > 60%

Cc1cccc(C)c1-c1cc2nc(n1)NS(=O)(=O)c1cccc(c1)C(=O)N(Cc1cncc(N(C)C3CCCC3)n1)[C@H](CC(C)(C)C)CO2 [Compound 1387]
EC50: < 1 µM | Emax: > 60%

Cc1cccc(C)c1-c1cc2nc(n1)NS(=O)(=O)c1cccc(c1)C(=O)N(Cc1ncc(OCC3CC3)cn1)[C@H](CC(C)(C)C)CO2 [Compound 1390]
EC50: < 1 µM | Emax: > 60%

CC[C@@H](C)Oc1cnc(CN2C(=O)c3cccc(c3)S(=O)(=O)Nc3nc(cc(-c4c(C)cccc4C)n3)OC[C@H]2CC(C)C)nc1 [Compound 1391]
EC50: < 1 µM | Emax: > 60%

COCCN(c1cccc(CN2C(=O)c3cccc(c3)S(=O)(=O)Nc3nc(cc(-c4c(C)cccc4C)n3)OC[C@H]2CC(C)(C)C)n1)C1CC2(CC2)C1 [Compound 1393]
EC50: < 1 µM | Emax: > 60%

COCCN(c1cncc(CN2C(=O)c3cccc(c3)S(=O)(=O)Nc3nc(cc(-c4c(C)cccc4C)n3)OC[C@H]2CC(C)(C)C)n1)C1CC2(CC2)C1 [Compound 1394]
EC50: < 1 µM | Emax: > 60%

Cc1cccc(C)c1-c1cc2nc(n1)NS(=O)(=O)c1cccc(c1)C(=O)N(Cc1ncc(OCC(C)C)cn1)[C@H](CC(C)(C)C)CO2 [Compound 1396]
EC50: < 1 µM | Emax: > 60%

Cc1cccc(C)c1-c1cc2nc(n1)NS(=O)(=O)c1cccc(c1)C(=O)N(Cc1ncc(OC3CC(F)(F)C3)cn1)[C@H](CC(C)(C)C)CO2 [Compound 1397]
EC50: < 1 µM | Emax: > 60%

Cc1cccc(C)c1-c1cc2nc(n1)NS(=O)(=O)c1cccc(c1)C(=O)N(Cc1cccc(N3C4CCC3CC4)n1)[C@H](CC(C)(C)C)CO2 [Compound 1398]
EC50: < 1 µM | Emax: > 60%

COC[C@H]1COCCN1c1cccc(CN2C(=O)c3cccc(c3)S(=O)(=O)Nc3nc(cc(-c4c(C)cccc4C)n3)OC[C@H]2CC(C)(C)C)n1 [Compound 1399]
activation at 10 µM: > 60%

Cc1cccc(C)c1-c1cc2nc(n1)NS(=O)(=O)c1cccc(c1)C(=O)N(Cc1ncc(N3CC(C)C3)cn1)[C@H](CC(C)(C)C)CO2 [Compound 1403]
EC50: < 1 µM | Emax: > 60%

Cc1cccc(C)c1-c1cc2nc(n1)NS(=O)(=O)c1cccc(c1)C(=O)N(Cc1ncc(N3CC(OC(C)C)C3)cn1)[C@H](CC(C)(C)C)CO2 [Compound 1404]
EC50: < 1 µM | Emax: > 60%

Cc1cccc(C)c1-c1cc2nc(n1)NS(=O)(=O)c1cccc(c1)C(=O)N(Cc1ncc(N3CC[C@H]3C)cn1)[C@H](CC(C)(C)C)CO2 [Compound 1405]
EC50: < 1 µM | Emax: > 60%

COCCN(c1cncc(CN2C(=O)c3cccc(c3)S(=O)(=O)Nc3nc(cc(-c4c(C)cccc4C)n3)OC[C@H]2CC(C)(C)C)n1)C(C)C [Compound 1407]
EC50: < 1 µM | Emax: > 60%

Cc1cccc(C)c1-c1cc2nc(n1)NS(=O)(=O)c1cccc(c1)C(=O)N(Cc1ncc(OC3CCCC3)cn1)[C@H](CC(C)C)CO2 [Compound 1408]
EC50: 1 to 3 µM | Emax: > 60%

Cc1cccc(C)c1-c1cc2nc(n1)NS(=O)(=O)c1cccc(c1)C(=O)N(Cc1ccc(OC(F)(F)F)cn1)[C@H](CC(C)(C)C)CO2 [Compound 1412]
EC50: < 1 µM | Emax: > 60%

Cc1cccc(C)c1-c1cc2nc(n1)NS(=O)(=O)c1cccc(c1)C(=O)N(Cc1cccc(N3CCOCC(C)(C)C3)n1)[C@H](CC(C)(C)C)CO2 [Compound 1414]
EC50: < 1 µM | Emax: > 60%

Cc1cccc(C)c1-c1cc2nc(n1)NS(=O)(=O)c1cccc(c1)C(=O)N(Cc1ncc(OCC(F)F)cn1)[C@H](CC(C)(C)C)CO2 [Compound 1416]
EC50: < 1 µM | Emax: > 60%

COCCN(c1cncc(CN2C(=O)c3cccc(c3)S(=O)(=O)Nc3nc(cc(-c4c(C)cccc4C)n3)OC[C@H]2CC(C)(C)C)n1)C1CCC1 [Compound 1417]
EC50: < 1 µM | Emax: > 60%

COCCN(CC(C)C)c1cncc(CN2C(=O)c3cccc(c3)S(=O)(=O)Nc3nc(cc(-c4c(C)cccc4C)n3)OC[C@H]2CC(C)(C)C)n1 [Compound 1418]
EC50: < 1 µM | Emax: > 60%

Cc1cccc(C)c1-c1cc2nc(n1)NS(=O)(=O)c1cccc(c1)C(=O)N(Cc1cccc(NC3CCOCC3)n1)[C@H](CC(C)(C)C)CO2 [Compound 1419]
EC50: < 1 µM | Emax: > 60%

Cc1cccc(C)c1-c1cc2nc(n1)NS(=O)(=O)c1cccc(c1)C(=O)N(Cc1cncc(NC3CCOCC3)n1)[C@H](CC(C)(C)C)CO2 [Compound 1420]
EC50: < 1 µM | Emax: > 60%

Cc1cccc(C)c1-c1cc2nc(n1)NS(=O)(=O)c1cccc(c1)C(=O)N(Cc1cccc(N(C)CC(C)(C)C3CC3)n1)[C@H](CC(C)(C)C)CO2 [Compound 1421]
activation at 10 µM: > 60%

Cc1cccc(C)c1-c1cc2nc(n1)NS(=O)(=O)c1cccc(c1)C(=O)N(Cc1ncc(OC3CC(C)(C)C3)cn1)[C@H](CC(C)(C)C)CO2 [Compound 1422]
EC50: < 1 µM | Emax: > 60%

Cc1cccc(C)c1-c1cc2nc(n1)NS(=O)(=O)c1cccc(c1)C(=O)N(Cc1ncc(OC3CC(C)(C)C3)cn1)[C@H](CC(C)C)CO2 [Compound 1423]
EC50: 1 to 3 µM | Emax: > 60%

Cc1cccc(C)c1-c1cc2nc(n1)NS(=O)(=O)c1cccc(c1)C(=O)N(Cc1ncc(OC(F)(F)F)cn1)[C@H](CC(C)(C)C)CO2 [Compound 1425]
EC50: < 1 µM | Emax: > 60%

Cc1cccc(C)c1-c1cc2nc(n1)NS(=O)(=O)c1cccc(c1)C(=O)N(Cc1ncc(OC3CCC3)cn1)[C@H](CC1CCC1)CO2 [Compound 1426]
EC50: < 1 µM | Emax: > 60%

Cc1cccc(C)c1-c1cc2nc(n1)NS(=O)(=O)c1cccc(c1)C(=O)N(Cc1cccc(N(C)C(C)C(C)(C)C)n1)[C@H](CC(C)(C)C)CO2 (stereo partly drawn) [Compound 1427]
activation at 10 µM: > 60%

Cc1cccc(C)c1-c1cc2nc(n1)NS(=O)(=O)c1cccc(c1)C(=O)N(Cc1cccc(N3CCC[C@@H]3CC(C)C)n1)[C@H](CC(C)(C)C)CO2 [Compound 1428]
EC50: < 1 µM | Emax: > 60%

Cc1cccc(C)c1-c1cc2nc(n1)NS(=O)(=O)c1cccc(c1)C(=O)N(Cc1ncc(OC(F)F)cn1)[C@H](CC(C)(C)C)CO2 [Compound 1430]
EC50: < 1 µM | Emax: > 60%
